# ChEMBL document CHEMBL3132760, “Investigating -secretase protein interactions in live cells using active site-directed clickable dual-photoaffinity probes” (Medchemcomm, 2014)
# Molecular target: Gamma-secretase
# Assay: Inhibition of gamma-secretase (unknown origin) expressed in CHO cells expressing APP assessed as inhibition of amyloid beta 42 production
# Assay type: cell-based, Homo sapiens
row,IC50 [nM],Compound
1,> 1000,C#CCCCCNC(=O)[C@H](Cc1ccccc1)NC(=O)[C@H](CC(C)C)NC(=O)[C@H](Cc1ccccc1)C[C@@H](O)[C@H](Cc1ccccc1)NC(=O)c1ccc(C(=O)c2ccccc2)cc1
2,180,C#CCCCCNC(=O)[C@H](Cc1ccc(C(=O)c2ccccc2)cc1)NC(=O)[C@H](CC(C)C)NC(=O)[C@H](Cc1ccccc1)C[C@@H](O)[C@H](Cc1ccccc1)NC(=O)c1ccc(C(=O)c2ccccc2)cc1
3,1,C#CCOc1ccc(C(=O)c2ccc(OCCOCCOCCNC(=O)[C@H](Cc3ccccc3)NC(=O)[C@H](CC(C)C)NC(=O)[C@H](Cc3ccccc3)C[C@@H](O)[C@H](Cc3ccccc3)NC(=O)OC(C)(C)C)cc2)cc1
4,12,C#CCCCC(=O)Nc1ccc(C(=O)c2ccc(NC(=O)COCCOCCOCC(=O)NCCCCCNC(=O)[C@H](Cc3ccccc3)NC(=O)[C@H](CC(C)C)NC(=O)[C@H](Cc3ccccc3)C[C@@H](O)[C@H](Cc3ccccc3)NC(=O)OC(C)(C)C)cc2)cc1
5,23,C#CCCCC(=O)Nc1ccc(C(=O)c2ccc(NC(=O)COCCOCCOCC(=O)NCCCOCCOCCOCCCNC(=O)[C@H](Cc3ccccc3)NC(=O)[C@H](CC(C)C)NC(=O)[C@H](Cc3ccccc3)C[C@@H](O)[C@H](Cc3ccccc3)NC(=O)OC(C)(C)C)cc2)cc1
6,1.5,C#CCOc1ccc(C(=O)c2ccc(OCCOCCOCCNC(=O)[C@H](Cc3ccc(C(=O)c4ccccc4)cc3)NC(=O)[C@H](CC(C)C)NC(=O)[C@H](Cc3ccccc3)C[C@@H](O)[C@H](Cc3ccccc3)NC(=O)OC(C)(C)C)cc2)cc1
7,33,C#CCCCC(=O)Nc1ccc(C(=O)c2ccc(NC(=O)COCCOCCOCC(=O)NCCCCCNC(=O)[C@H](Cc3ccc(C(=O)c4ccccc4)cc3)NC(=O)[C@H](CC(C)C)NC(=O)[C@H](Cc3ccccc3)C[C@@H](O)[C@H](Cc3ccccc3)NC(=O)OC(C)(C)C)cc2)cc1
8,20,C#CCCCC(=O)Nc1ccc(C(=O)c2ccc(NC(=O)COCCOCCOCC(=O)NCCCOCCOCCOCCCNC(=O)[C@H](Cc3ccc(C(=O)c4ccccc4)cc3)NC(=O)[C@H](CC(C)C)NC(=O)[C@H](Cc3ccccc3)C[C@@H](O)[C@H](Cc3ccccc3)NC(=O)OC(C)(C)C)cc2)cc1
